Data taken from patent US6545152B1, “R-isomers of nonnucleoside inhibitors” (Parker Hughes Institute, priority 2000, dated 2003).
Several values for one entry are separate records, joined by “and”; a condition that tells them apart may be missing. Equal entries are not always repeated. Where two headings read alike, the source gives them in different places.

Tests used:
[1] = tested on: HIV-1 strain A17 variant (Y181C plus K103N); assay: microbe, parasite or virus in culture; format: cell-based
Description: (§1) Normal human peripheral blood mononuclear cells (PBMNC) from HIV-negative donors were cultured 72 hours in RPMI 1640 supplemented with 20%(v/v) heat-inactivated fetal bovine serum (FBS), 3% interleukin-2, 2 mM L-glutamine, 25 mM HEPES, 2 g/L NaHCO3, 50 μg/ml gentamicin, and 4 μg/ml phytohemagglutinin prior to exposure to HIV-1. The incubated cells were then exposed to HIV-1 at a multiplicity of infection (MOI) of 0.1 during a one-hour adsorption period at 37° C. in a humidified 5% CO2 atmosphere. Subsequently, infected cells were cultured in 96-well microtiter plates (100 μl/well; 2×10^6 cells/ml) in the presence of test compounds, including appropriate controls. Aliquots of culture supernatants were removed from the wells on the seventh day after infection for p24 antigen assays. The methods used in the P24 assay were as previously described in Uckun, et al., Antimicrobial Agents and Chemotherapy, 1998, 42, 383; Zarling, et al., Nature, 1990, 347, 92-95; Erice, et al., Antimicrob. Ag. Chemother., 1993, 37, 835.
(§2) The applied p24 enzyme immunoassay (EIA) was the unmodified kinetic assay commercially available from Coulter Corporation/Immunotech, Inc. (Westbrooke, Me.). In the assay, a murine monoclonal antibody against HIV core protein is coated onto microwell strips. Antigen (HIV core protein) present in the test culture supernatant samples binds the antibody and the bound antibody-antigen complex is quantitated. Percent viral inhibition was calculated by comparing the p24 values from the test substance-treated infected cells with p24 values from untreated infected cells (i.e., virus controls).

[2] = tested on: NNI-resistant HIV-1 strain A17 (Y181C); assay: microbe, parasite or virus in culture; format: cell-based
Description: as §1, §2

[3] = tested on: HIV-1 strain HTLVIIIB; assay: p24 antigen assay of HIV-1 replication in human PBMC; format: cell-based; conditions: read-out: IC50 HTLVIIIB
Description: The HIV-1 strain HTLVIIIB (kindly provided by Dr. Neal T. Wetherall, VIROMED Laboratories, Inc.), was propagated in CCRF-CEM cells, and used in in vitro assays of the anti-HIV-1 activity of the synthesized compounds of the invention. Cell-free supernatants of HTLVIIIB-infected CCRF-CEM cells were harvested, dispensed into 1 ml aliquots, and frozen at −70° C.
The incubated cells were then exposed to HIV-1 at a multiplicity of infection (MOI) of 0.1 during a one-hour adsorption period at 37° C. in a humidified 5% CO2 atmosphere. Subsequently, infected cells were cultured in 96-well microtiter plates (100 μl/well; 2×10^6 cells/ml) in the presence of test compounds, including appropriate controls. Aliquots of culture supernatants were removed from the wells on the seventh day after infection for p24 antigen assays. […] Ag.
as §2

[4] = tested on: multidrug resistant HIV-1 strain RT-MDR (V106A, 74V, 41L, 215Y); assay: microbe, parasite or virus in culture; format: cell-based
[5] = biological target: T1, recombinant HIV-1 reverse transcriptase (rRT) (Human immunodeficiency virus type 1 group M subtype B, UniProt P04585); assay: Cell-free RT inhibition assay (Quan-T-RT, scintillation proximity); format: biochemical
T1 construct: recombinant HIV-1 reverse transcriptase (rRT)
Description: In addition, the activity of the test compounds to inhibit recombinant HIV-1 reverse transcriptase (rRT) activity was determined using the Quan-T-RT assay system (Amersham, Arlington Heights, Ill.), which utilizes the scintillation proximity assay principle. […] Data for both bioassays is reported as IC50 values.

[6] = Human immunodeficiency virus 1, 168 h, read-out: IC50 A17 (second column; A17 variant)
[7] = Human immunodeficiency virus 1, read-out: IC50 A17 (second column; A17 variant)
[8] = Human immunodeficiency virus 1, read-out: IC50 A17
[9] = Human immunodeficiency virus 1, PBMC, human PBMC, p24
[10] = Human immunodeficiency virus 1, H9, read-out: IC50 RT-MDR

SMILES	IC50 [1, 7] [nM]	IC50 [2, 8] [nM]	IC50 [3, 9] [nM]	IC50 [4, 10] [nM]	IC50 [5]	IC50 ([3]; human PBMC, p24) [nM]	melting point [°C]	also measured
CC(C)Nc1cccnc1N1CCN(C(=O)c2cc3cc(NS(C)(=O)=O)ccc3[nH]2)CC1 [Delavirdine, reference compound]	> 100000	50000	9	400				IC50 [1, 6]: > 100000 nM
Fc1ccccc1CCNC(=S)Nc1ccc(Br)cn1 [HI-240, reference compound]					600 nM	< 1		IC50 ([1]; Y181C plus K103N mutations, read-out: IC50 A17 (second column; A17 variant)): 41000 nM; IC50 ([2]; Y181C mutation, read-out: IC50 A17): 200 nM; IC50 ([4]; H9 cells, read-out: IC50 RT-MDR): 5 nM
Cc1ccnc2c1NC(=O)c1cccnc1N2C1CC1 [Nevirapine, reference compound]	> 100000	> 100000	34	5000				
C[C@@H](NC(=S)Nc1ccc(Br)cn1)C1CCCCC1 [PHI-509^R, N-[1-(1-(1R)-Cyclohexylethyl)]-N-[2-(5-bromopyridyl)] thiourea]		400		200		1	176 to 177	IC50 [1, 6]: 10000 nM; IC50 ([3]; human PBMC, p24, listed as PHI-509^S): > 1000 nM
CC(NC(=S)Nc1ccc(Cl)cn1)C1CCCCC1 (stereo not shown) [PHI-510^R]	8200	70		60				
C[C@@H](NC(=S)Nc1ccc(Br)cn1)c1ccccc1 [PHI-511^R]	2700	10		5		10	170 to 172	times more active than HI-240 ([2]; A17): 20 times; times more active than delavirdine ([2]; A17): 5,000 times; times more active than nevirapine ([2]; A17): 10,000 times; times more active than trovirdine ([2]; A17): 50 times; IC50 ([3]; human PBMC, p24, listed as PHI-511^S): > 1000 nM; times more active than delavirdine ([4]; RT-MDR): 80 times; times more active than nevirapine ([4]; RT-MDR): 1,000 times; times more active than trovirdine ([4]; RT-MDR): 4 times
C[C@@H](NC(=S)Nc1ccc(Cl)cn1)c1ccccc1 [PHI-512^R]	10200	200	10	10			185 to 187.5	
C[C@@H](NC(=S)Nc1nccs1)C1CCCCC1 [PHI-513^R, N-[1-(1-(1R)-Cyclobexyl)ethyl]-N′-[2-(thiazolyl)]thiourea]	5800	900		5600	13000 nM and > 100000 nM	1	118 to 119	IC50 ([3]; human PBMC, p24, listed as PHI-513^S): > 1000 nM
C[C@H](NC(=S)Nc1ccccn1)C1CCCCC1 [PHI-542]			> 1000		> 100000 nM			
C[C@@H](NC(=S)Nc1ccccn1)C1CCCCC1 [PHI-543]			> 1000		> 100000 nM		125 to 127	
S=C(NCCc1ccccn1)Nc1ccc(Br)cn1 [Trovirdine, reference compound]	> 100000	500		20				IC50 [1, 6]: > 100000 nM; IC50 ([3]; Human immunodeficiency virus 1, PBMC): 7 nM
